Measurements: patent US20240358731A1, “SUMO PATHWAY AS AN OXYGEN SENSOR RELEVANT TO THE PATHOPHYSIOLOGY OF PULMONARY ARTERY HYPERTENSION AND CARDIAC ARRHYTHMIA” (Northeastern University, priority 2023, published 2024)
Entries after “also recorded” stand apart in the source; their conditions may differ.

T1: SUMO activating enzyme (SAE) (Homo sapiens, UniProt Q9UBE0+Q9UBT2)
T1 sequence (Q9UBE0 1-346): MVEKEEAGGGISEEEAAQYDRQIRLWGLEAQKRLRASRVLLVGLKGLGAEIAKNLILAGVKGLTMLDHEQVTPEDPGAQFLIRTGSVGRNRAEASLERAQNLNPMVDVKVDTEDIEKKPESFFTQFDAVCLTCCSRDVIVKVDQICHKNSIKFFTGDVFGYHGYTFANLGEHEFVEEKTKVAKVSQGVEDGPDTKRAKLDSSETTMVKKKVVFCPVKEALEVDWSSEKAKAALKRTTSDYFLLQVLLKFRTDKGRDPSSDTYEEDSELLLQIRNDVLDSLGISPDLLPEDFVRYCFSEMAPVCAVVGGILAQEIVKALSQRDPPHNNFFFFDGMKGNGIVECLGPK
T1 sequence (Q9UBT2 1-640): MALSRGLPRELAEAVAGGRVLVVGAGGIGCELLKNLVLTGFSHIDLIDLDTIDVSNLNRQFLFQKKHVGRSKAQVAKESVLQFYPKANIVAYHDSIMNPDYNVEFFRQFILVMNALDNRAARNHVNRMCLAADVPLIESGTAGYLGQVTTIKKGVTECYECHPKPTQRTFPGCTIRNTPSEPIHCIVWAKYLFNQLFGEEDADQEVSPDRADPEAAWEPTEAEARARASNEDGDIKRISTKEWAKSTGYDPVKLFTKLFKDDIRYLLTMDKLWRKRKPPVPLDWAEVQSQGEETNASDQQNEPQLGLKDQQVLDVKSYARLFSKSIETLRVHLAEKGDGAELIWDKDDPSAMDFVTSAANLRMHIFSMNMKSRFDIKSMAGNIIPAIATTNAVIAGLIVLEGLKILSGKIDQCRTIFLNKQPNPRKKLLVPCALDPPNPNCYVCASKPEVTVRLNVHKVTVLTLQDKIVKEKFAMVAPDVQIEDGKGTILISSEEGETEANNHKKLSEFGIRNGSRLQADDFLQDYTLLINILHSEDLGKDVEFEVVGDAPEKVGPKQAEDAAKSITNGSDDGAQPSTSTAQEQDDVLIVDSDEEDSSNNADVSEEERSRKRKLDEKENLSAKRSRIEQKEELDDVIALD

T2: Kir2.1 channels (Homo sapiens, UniProt P63252)
T2 construct: expressed in transfected cells; host or cells: HEK293T
T2 sequence (P63252 1-427): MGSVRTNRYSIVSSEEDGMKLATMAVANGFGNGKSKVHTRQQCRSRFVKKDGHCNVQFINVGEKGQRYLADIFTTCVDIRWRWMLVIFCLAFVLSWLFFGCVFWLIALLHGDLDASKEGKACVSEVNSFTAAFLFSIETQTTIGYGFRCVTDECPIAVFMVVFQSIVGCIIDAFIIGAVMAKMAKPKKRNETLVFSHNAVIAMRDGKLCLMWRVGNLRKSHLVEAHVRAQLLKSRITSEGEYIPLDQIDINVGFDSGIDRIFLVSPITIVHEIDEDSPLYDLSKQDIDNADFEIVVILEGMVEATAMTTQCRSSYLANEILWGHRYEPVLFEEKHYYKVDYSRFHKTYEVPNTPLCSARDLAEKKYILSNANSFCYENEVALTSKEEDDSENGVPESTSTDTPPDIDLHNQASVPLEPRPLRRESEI

B1: SENP1: purified deSUMOylating enzyme (SUMO specific protease) introduced via the recording pipette or expressed (protein, UniProt Q9P0U3 1-644, looked up)
Sentrin-specific protease 1: MDDIADRMRMDAGEVTLVNHNSVFKTHLLPQTGFPEDQLSLSDQQILSSRQGHLDRSFTCSTRSAAYNPSYYSDNPSSDSFLGSGDLRTFGQSANGQWRNSTPSSSSSLQKSRNSRSLYLETRKTSSGLSNSFAGKSNHHCHVSAYEKSFPIKPVPSPSWSGSCRRSLLSPKKTQRRHVSTAEETVQEEEREIYRQLLQMVTGKQFTIAKPTTHFPLHLSRCLSSSKNTLKDSLFKNGNSCASQIIGSDTSSSGSASILTNQEQLSHSVYSLSSYTPDVAFGSKDSGTLHHPHHHHSVPHQPDNLAASNTQSEGSDSVILLKVKDSQTPTPSSTFFQAELWIKELTSVYDSRARERLRQIEEQKALALQLQNQRLQEREHSVHDSVELHLRVPLEKEIPVTVVQETQKKGHKLTDSEDEFPEITEEMEKEIKNVFRNGNQDEVLSEAFRLTITRKDIQTLNHLNWLNDEIINFYMNMLMERSKEKGLPSVHAFNTFFFTKLKTAGYQAVKRWTKKVDVFSVDILLVPIHLGVHWCLAVVDFRKKNITYYDSMGGINNEACRILLQYLKQESIDKKRKEFDTNGWQLFSKKSQEIPQQMNGSDCGMFACKYADCITKDRPINFTQQHMPYFRKRMVWEILHRKLL

Assays:
[1] = molecular target: T1, SUMO activating enzyme (SAE); settings: cited from earlier work
Kir2.4 channels = assay: Whole-cell patch-clamp of Kir2.4 currents in transfected HEK293T cells under acute hypoxia; assay type: cell-based, human
Method: Hypoxia diminishes Kir2.4 activity in a TAK981 sensitive manner. HEK293T cells were transiently transfected with plasmid DNA for Kir2.4 channels. Inward rectifying currents were elicited in response to a high [K]^+ (140 mM) buffer using a −80 mV to +80 mV ramp protocol. Following stabilization in the high K^+ buffer, the cells were subjected to a hypoxic (2% O2) perfusate. Acute hypoxia evoked a ˜30% decrease in Kir2.4 currents. Recordings were terminated with the perfusion of 10 mM Ba^2+ (FIGS. 3A, 3B).
Next, we repeated the experiment using that were preincubated with 100 nM TAK981 for one hour. We observed that the hypoxic decrease in Kir2.4 currents was abolished in cells pre-treated with TAK981 (FIGS. 3C, 3D).

Kir2.1 channels = molecular target: T2, Kir2.1 channels; assay: Whole-cell patch-clamp of heterologous Kir2.1 channels in HEK293T cells under hypoxia; assay type: cell-based; settings: agent in recording pipette (SENP1 2 μM)
Method: To knockdown Kir2.1 expression, RVCMs were transduced with lentiviral particles carrying cGFP and shRNA targeting KCNJ2-mRNA for the channel. Kir2.1 knockdown cells (Kir2.1kd-CMs) were identified by expression of cGFP. Cells were studied with control pipette solution, or with pipette solutions containing purified SUMO1 (1 μM) or SENP1 (2 μM). Where indicated, the control pipette solution contained diC8 PIP2. Paired patch-clamp data were analyzed by Students t-test; ***, P<0.01. […] Kir2.1kd-CMs are identified by expression of GFP (inset, scale bar=10 μm). […] The arrow indicates the change in current-magnitude between exposure to ambient O2 and 2% O2 in the same cell. Right, Concentration-response curve showing that including diC8-PIP2 in the pipette opposes hypoxic-inhibition of IK1 in control RVCMs and RVCMs expressing the scrambled shRNA. The hypoxic-response is diminished in Kir2.1kd-CMs. Data are mean±s.d. for 7-8 cells per condition. […] Current inhibition is diminished when SENP1 is included in the recording pipette and is not observed when SUMO-insensitive Kir2.1-K49Q channels are studied. Data are mean±s.d. for 6 cells per condition.
Hypoxic-inhibition of IK1/Kir2.1 is reduced by diC8-PIP2 in a concentration-dependent manner. We have shown that adding the exogenous, soluble PIP2 analog diC8-PIP2 into the patch-pipette opposes hypoxic-inhibition of IK1 (FIG. 4). […]

| Molecule | SAE / SUMO E1 inhibition [1] | selectivity [1] | effect on hypoxic decrease in Kir2.4 currents (Kir2.4 channels; preincubated with 100 nM for one hour, 2% O2) | tolerability of pretreatment in cells (Kir2.4 channels; pretreating cells) | effect on hypoxic inhibition of Kir2.1 channels (Kir2.1 channels) |
| --- | --- | --- | --- | --- | --- |
| Cc1sc(C(=O)c2cncnc2N[C@@H]2C[C@H](COS(N)(=O)=O)[C@@H](O)C2)cc1[C@@H]1NCCc2ccc(Cl)cc21 [TAK981, Subasumstat] | nM-inhibitor | highly selective | abolished; also recorded: precludes hypoxic inhibition of Kir2 currents | tolerated by the cells | – |
| B1 | – | – | – | – | ameliorated |
